Experimental data from patent US20150018403A1, “FLUORENE-AMIDE COMPOUNDS AND PHARMACEUTICAL USE THEREOF” (JAPAN TOBACCO INC., priority 2013, published 2015).

How the values were obtained:
[1] = Metabolic stability test in rat liver microsome; assay type: in vitro ADME
human PDHK2 (hPDHK2) = target: T1, human PDHK2 (hPDHK2) (Homo sapiens, UniProt Q15119); assay: Inhibitory action of PDHK2 activity in vitro (residual PDH activity after kinase reaction); assay type: biochemical; settings: PDH/hPDHK2 complex, 45 min kinase reaction at room temperature; read-out: hPDHK2 IC50
T1 construct: made in house; host or cells: Escherichia coli BL21(DE3), pET17b vector
Protocol: The inhibitory action of PDHK activity was assessed indirectly by measuring the residual PDH activity after kinase reaction in the presence of a test compound.
In the case of human PDHK2 (hPDHK2, Genbank Accession No. BC040478.1), modified hPDHK2 cDNA wherein FLAG-Tag sequence was added to the N terminus of hPDHK2 cDNA clone (pReceiver-M01/PDK2-GeneCopoeia) was prepared by PCR and cloned into a vector (pET17b-Novagen). The recombinant construct was transformed into Escherichia coli (DH5α-TOYOBO). The recombinant clones were identified, and plasmid DNA was isolated and subjected to the DNA sequence analysis. One clone which had the expected nucleic acid sequence was selected for expression work.
For expression of hPDHK2 activity, Escherichia coli strain BL21(DE3) cells (Novagen) were transformed with the pET17b vector containing modified hPDHK2 cDNA. The Escherichia coli were grown to an optical density 0.6 ([…]) at 30° C. Protein expression was induced by the addition of 500 μmol/L isopropyl-β-thiogalactopyranoside. The Escherichia coli were cultured at 30° C. for 5 hr and harvested by centrifugation. Resuspension of the Escherichia coli paste was disrupted by a microfluidizer. FLAG-Tagged protein was purified using FLAG affinity gel. The gel was washed with 20 mmol/L HEPES-NaOH, 500 mmol/L sodium chloride, 1% ethylene glycol, and 0.1% Pluronic F-68 (pH 8.0), and the binding protein was eluted with 20 mmol/L HEPES-NaOH, 100 μg/mL FLAG peptide, 500 mmol/L sodium chloride, 1% ethylene glycol, and 0.1% Pluronic F-68 (pH 8.0). The eluted fractions containing FLAG-Tagged protein were pooled, dialyzed against 20 mmol/L HEPES-NaOH, 150 mmol/L sodium chloride, 0.5 mmol/L EDTA, 1% ethylene glycol, and 0.1% Pluronic F-68 (pH 8.0), and preserved at −80° C.
0.05 U/mL PDH and 0.8 μg/mL hPDHK2 were mixed in a buffer (50 mmol/L 3-morpholinopropanesulfonic acid (pH 7.0), 20 mmol/L dipotassium hydrogen phosphate, 60 mmol/L potassium chloride, 2 mmol/L magnesium chloride, 0.4 mmol/L EDTA, and 0.2% Pluronic F-68, 2 mmol/L dithiothreitol), and the mixture was incubated at 4° C. overnight to obtain a PDH/hPDHK2 complex. The test compounds were diluted with DMSO. […] DMSO (1.5 μL) was added to control wells instead of the test compound. […] The mixture was incubated at room temperature for 90 min, and the residual PDH activity was measured. The absorbance at 340 nm before and after PDH reaction was measured using a microplate reader to detect NADH produced by the PDH reaction. The hPDHK2 inhibition rate (%) of the test compound was calculated from the formula [{(PDH activity of test compound−PDH activity of control)/PDH activity of blank−PDH activity of control)}×100].

| SMILES | stability in liver microsome (residual ratio %) ([1]; 10 min) [%] | stability in liver microsome (residual ratio %) ([1]; 60 min) [%] | IC50 (human PDHK2 (hPDHK2)) [nM] |
| --- | --- | --- | --- |
| C[C@H](O)COc1cc(-c2cnn(C(C)(C)C(N)=O)c2)c2c(c1)[C@@](O)(C(F)(F)F)c1ccccc1-2 [compound (2), 2-(4-{(9R)-9-hydroxy-2-[(2S)-2-hydroxypropoxy]-9-(trifluoromethyl)-9H-fluoren-4-yl}-1H-pyrazol-1-yl)-2-methylpropanamide] | 98.3 | 98.5 | 4.9 |
| Cn1cc(-c2cc(OCC(C)(C)O)cc3c2-c2ccccc2[C@]3(O)C(F)(F)F)cn1 [compound (B), (9R)-2-(2-Hydroxy-2-methylpropoxy)-4-(1-methyl-1H-pyrazol-4-yl)-9-(trifluoromethyl)-9H-fluoren-9-ol, reference compound] | 101.1 | 92.1 | 7.4 |
